ChEMBL document CHEMBL1201862, “PubChem BioAssay data set” (2004)
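Method: 48-hour compound exposure of cells in 96-well plates, five concentrations, linear interpolation of endpoints. Abbreviation: GI50, concentration required for 50% inhibition of growth.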 The source made the active and inactive calls. Rule as the data show it: active = GI50 up to about 1.1 µM and inactive = higher.

Experiments:
Assay in all cases: NCI tumour cell line growth inhibition, 48 h
[1] = test system: HT-29
[2] = test system: DU-145
[3] = test system: U-251
[4] = test system: NCI-H460
[5] = test system: HOP-62
[6] = test system: 786-0
[7] = test system: CCRF-CEM
[8] = test system: A498
[9] = test system: KM12
[10] = test system: HOP-92
[11] = test system: PC-3
[12] = test system: MDA-MB-435
[13] = test system: LOX IMVI
[14] = test system: RXF 393
[15] = test system: MCF7
[16] = test system: SF-295
[17] = test system: SR
[18] = test system: UO-31
[19] = test system: OVCAR-4
[20] = test system: SK-OV-3
[21] = test system: SK-MEL-5
[22] = test system: BT-549
[23] = test system: COLO 205
[24] = test system: SF-268
[25] = test system: TK-10
[26] = test system: Malme-3M
[27] = test system: UACC-257
[28] = test system: MOLT-4
[29] = test system: SN12C
[30] = test system: MDA-N
[31] = test system: SF-539
[32] = test system: T47D
[33] = test system: M14
[34] = test system: K562
[35] = test system: OVCAR-3
[36] = test system: MDA-MB-231
[37] = test system: ACHN
[38] = test system: SW-620
[39] = test system: A549
[40] = test system: NCI/ADR-RES
[41] = test system: SNB-19
[42] = test system: HCT-15
[43] = test system: EKVX
[44] = test system: RPMI-8226
[45] = test system: NCI-H23
[46] = test system: SNB-75
[47] = test system: HL-60
[48] = test system: SK-MEL-2
[49] = test system: SK-MEL-28
[50] = test system: OVCAR-5
[51] = test system: OVCAR-8
[52] = test system: HCT-116
[53] = test system: UACC-62
[54] = test system: Hs-578T
[55] = test system: NCI-H226
[56] = test system: IGROV-1

Question: Which results are given for CN(C)CCCNCc1cccc2ccccc12?
Answer: GI50 [1]: > 100 µM (inactive); GI50 [2]: > 100 µM (inactive); GI50 [3]: > 100 µM (inactive); GI50 [4]: > 100 µM (inactive); GI50 [5]: > 100 µM (inactive); GI50 [6]: > 100 µM (inactive); GI50 [7]: > 100 µM (inactive); GI50 [8]: > 100 µM (inactive); GI50 [9]: > 100 µM (inactive); GI50 [10]: 78.3 µM (inactive); GI50 [11]: > 100 µM (inactive); GI50 [12]: > 100 µM (inactive); GI50 [13]: > 100 µM (inactive); GI50 [14]: > 100 µM (inactive); GI50 [15]: > 100 µM (inactive); GI50 [16]: > 100 µM (inactive); GI50 [17]: 25.6 µM (inactive); GI50 [18]: > 100 µM (inactive); GI50 [19]: > 100 µM (inactive); GI50 [20]: > 100 µM (inactive); GI50 [21]: > 100 µM (inactive); GI50 [22]: > 100 µM (inactive); GI50 [23]: > 100 µM (inactive); GI50 [24]: > 100 µM (inactive); GI50 [25]: > 100 µM (inactive); GI50 [26]: > 100 µM (inactive); GI50 [27]: > 100 µM (inactive); GI50 [28]: > 100 µM (inactive); GI50 [29]: > 100 µM (inactive); GI50 [30]: > 100 µM (inactive); GI50 [31]: > 100 µM (inactive); GI50 [32]: > 100 µM (inactive); GI50 [33]: 66.5 µM (inactive); GI50 [34]: > 100 µM (inactive); GI50 [35]: > 100 µM (inactive); GI50 [36]: > 100 µM (inactive); GI50 [37]: > 100 µM (inactive); GI50 [38]: > 100 µM (inactive); GI50 [39]: > 100 µM (inactive); GI50 [40]: > 100 µM (inactive); GI50 [41]: > 100 µM (inactive); GI50 [42]: > 100 µM; GI50 [43]: > 100 µM (inactive); GI50 [44]: > 100 µM (inactive); GI50 [45]: > 100 µM (inactive); GI50 [46]: > 100 µM (inactive); GI50 [47]: > 100 µM (inactive); GI50 [48]: > 100 µM (inactive); GI50 [49]: > 100 µM (inactive); GI50 [50]: > 100 µM (inactive); GI50 [51]: > 100 µM (inactive); GI50 [52]: > 100 µM (inactive); GI50 [53]: > 100 µM (inactive); GI50 [54]: > 100 µM (inactive); GI50 [55]: > 100 µM (inactive); GI50 [56]: > 100 µM (inactive)
